This assay deals with HiBiT tagged Wee1 (Homo sapiens, UniProt P30291). In words: Wee1 protein degradation assay (HiBiT assay). The class given is cell-based. The note with it: engineered HT-1080 cells, 20 hours; for Dmax: maximum percentage of Wee1 degradation, read-out: HiBiT Wee1: Dmax.

This is an account of results in US20250049798A1, “WEE1 PROTEIN KINASE DEGRADATION AGENT AND USE THEREOF” (HANGZHOU GLUBIO PHARMACEUTICAL CO. LTD., priority 2021, published 2025).

The term DC50 denotes the concentration at which degradation of the target reaches its halfway point. High values mean a less potent degrader, low ones a more potent degrader. The Dmax is the largest share of the target that was removed.

Sequence of HiBiT tagged Wee1 (P30291 whole entry): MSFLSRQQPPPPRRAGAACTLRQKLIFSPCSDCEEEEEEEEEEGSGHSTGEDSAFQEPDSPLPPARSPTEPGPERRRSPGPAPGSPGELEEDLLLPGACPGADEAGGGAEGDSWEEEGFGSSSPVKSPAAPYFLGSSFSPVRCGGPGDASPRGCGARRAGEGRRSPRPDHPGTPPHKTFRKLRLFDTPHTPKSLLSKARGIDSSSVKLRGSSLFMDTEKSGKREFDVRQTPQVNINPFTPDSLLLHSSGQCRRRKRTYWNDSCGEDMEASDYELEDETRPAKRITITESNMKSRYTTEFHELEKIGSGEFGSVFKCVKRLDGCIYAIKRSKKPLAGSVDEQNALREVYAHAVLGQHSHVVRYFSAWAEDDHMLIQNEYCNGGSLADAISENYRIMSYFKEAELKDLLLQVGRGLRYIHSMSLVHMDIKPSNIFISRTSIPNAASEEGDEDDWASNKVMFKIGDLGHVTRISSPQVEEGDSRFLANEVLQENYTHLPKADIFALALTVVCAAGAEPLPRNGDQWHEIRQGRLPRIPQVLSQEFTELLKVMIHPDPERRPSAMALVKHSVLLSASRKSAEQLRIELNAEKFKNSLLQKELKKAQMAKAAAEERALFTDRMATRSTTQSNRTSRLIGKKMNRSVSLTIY

Turning to `C=CCn1c(=O)c2cnc(Nc3ccc(N4CCN(CCCCc5cccc6c5CN(C5CCC(=O)NC5=O)C6=O)CC4)cc3)nc2n1-c1cccc(C(C)(C)O)n1` (centres unmarked) [Compound 50], the DC50 was less than 0.1 µM and the Dmax fell in the range of 50 to 75%.

As to `C=CCn1c(=O)c2cnc(Nc3ccc(N4CCC(CN5CCC(c6cccc7c6n(C)c(=O)n7C6CCC(=O)NC6=O)CC5)CC4)cc3)nc2n1-c1ccc2c(n1)[C@](O)(CC)CC2` (some centres unmarked) [Compound 53], the half-maximal degradation concentration (DC50) was more than 1 µM and the maximal degradation (Dmax) is less than 50%.

As for `C=CCn1c(=O)c2cnc(Nc3ccc(N4CCC(CN5CCN(c6ccc7c(c6)C(=O)N(C6CCC(=O)NC6=O)C7=O)CC5)CC4)cc3)nc2n1-c1cccc(C(C)(C)O)n1` (centres unmarked) [Compound 56], the DC50 is less than 0.1 µM and the maximal degradation (Dmax) was 50 to 75%.

`C=CCn1c(=O)c2cnc(Nc3ccc(N4CCC(CN5CCN(c6cc7c(cc6F)C(=O)N(C6CCC(=O)NC6=O)C7=O)CC5)CC4)cc3)nc2n1-c1cccc(C(C)(C)O)n1` (centres unmarked) [Compound 57]: the DC50 is less than 0.1 µM and the Dmax fell in the range of 50 to 75%.

Regarding `COc1ccc(C(=O)N2CCC(CN3CCN(Cc4ccc(Nc5ncc6c(=O)n(-c7c(Cl)cccc7Cl)c7nccn7c6n5)cc4)CC3)CC2)cc1N1CCC(=O)NC1=O` [Compound 58], the DC50 was more than 1 µM and the Dmax was less than 50%.

In the case of `COc1ccc(C(=O)N2CCC3(CCN(Cc4ccc(Nc5ncc6c(=O)n(-c7c(Cl)cccc7Cl)c7nccn7c6n5)cc4)CC3)CC2)cc1N1CCC(=O)NC1=O` [Compound 59], the 50% degradation concentration (DC50) is more than 1 µM and the Dmax was less than 50%.

In the case of `COc1ccc(C(=O)N2CCC(OC3CCN(Cc4ccc(Nc5ncc6c(=O)n(-c7c(Cl)cccc7Cl)c7nccn7c6n5)cc4)CC3)CC2)cc1N1CCC(=O)NC1=O` [Compound 60], the half-maximal degradation concentration (DC50) is more than 1 µM and the Dmax is less than 50%.

On to `C=CCn1c(=O)c2cnc(Nc3ccc(N4CCN(CCCOc5ccc6c(c5)C(=O)N(C5CCC(=O)NC5=O)C6=O)CC4)cc3)nc2n1-c1cccc(C(C)(C)O)n1` (centres unmarked) [Compound 62], for which the half-maximal degradation concentration (DC50) was less than 0.1 µM and the Dmax is more than 75%.

Turning to `C=CCn1c(=O)c2cnc(Nc3ccc(N4CCN(CCOc5ccc6c(c5)C(=O)N(C5CCC(=O)NC5=O)C6=O)CC4)cc3)nc2n1-c1cccc(C(C)(C)O)n1` (centres unmarked) [Compound 63], the DC50 is less than 0.1 µM and the maximal degradation (Dmax) was 50 to 75%.

On to `C=CCn1c(=O)c2cnc(Nc3ccc(N4CCN(CC5CCN(Cc6cccc7c6n(C)c(=O)n7C6CCC(=O)NC6=O)CC5)CC4)cc3)nc2n1-c1cccc(C(C)(C)O)n1` (centres unmarked) [Compound 64], for which the DC50 is less than 0.1 µM and the Dmax lay within 50 to 75%.

With `C=CCn1c(=O)c2cnc(Nc3ccc(N4CCC(N5CCN(c6cccc7c6n(C)c(=O)n7C6CCC(=O)NC6=O)CC5)CC4)cc3)nc2n1-c1cccc(C(C)(C)O)n1` (centres unmarked) [Compound 68], the 50% degradation concentration (DC50) is less than 0.1 µM and the Dmax lay in the range of 50 to 75%.

On to `C=CCn1c(=O)c2cnc(Nc3ccc(C4CCN(CC5CCN(c6ccc(NC7CCC(=O)NC7=O)cc6F)CC5)CC4)cc3)nc2n1-c1cccc(C(C)(C)O)n1` (centres unmarked) [Compound 73], for which the 50% degradation concentration (DC50) was less than 0.1 µM and the Dmax is more than 75%.

`C=CCn1c(=O)c2cnc(Nc3ccc(C4CCN(C5CCN(c6ccc7c(c6)C(=O)N(C6CCC(=O)NC6=O)C7=O)CC5)CC4)cc3)nc2n1-c1ccc2c(n1)[C@@](O)(CC)CC2` (some centres unmarked) [Compound 75]: the 50% degradation concentration (DC50) is less than 0.1 µM and the maximal degradation (Dmax) fell in the range of 50 to 75%.

For the molecule `C=CCn1c(=O)c2cnc(Nc3ccc(N4CCC(N5CCN(c6ccc7c(c6)C(=O)N(C6CCC(=O)NC6=O)C7=O)CC5)CC4)cc3)nc2n1-c1cccc(C(C)(C)O)n1` (centres unmarked) [Compound 77], the half-maximal degradation concentration (DC50) is less than 0.1 µM and the Dmax lay within 50 to 75%.

For the molecule `C=CCn1c(=O)c2cnc(Nc3ccc(N4CCC(N5CCN(c6cc7c(cc6F)C(=O)N(C6CCC(=O)NC6=O)C7=O)CC5)CC4)cc3)nc2n1-c1cccc(C(C)(C)O)n1` (centres unmarked) [Compound 78], the 50% degradation concentration (DC50) is 0.1 to 1 µM and the greatest degradation seen (Dmax) is 50 to 75%.

As for `O=C1CCC(Nc2ccc(N3CCC(CN4CCN(c5ccc(Nc6ncc7c(=O)n(-c8c(Cl)cccc8Cl)c8nccn8c7n6)cc5)CC4)CC3)c(F)c2)C(=O)N1` (centres unmarked) [Compound 83], the DC50 is less than 0.1 µM and the greatest degradation seen (Dmax) is more than 75%.

On to `C=CCn1c(=O)c2cnc(Nc3ccc(C4CCN(CC5CCN(c6ccc(NC7CCC(=O)NC7=O)cn6)CC5)CC4)cc3)nc2n1-c1cccc(C(C)(C)O)n1` (centres unmarked) [Compound 84], for which the DC50 is less than 0.1 µM and the Dmax was 50 to 75%.

Turning to `C=CCn1c(=O)c2cnc(Nc3ccc(N4CCN(CC5CCN(c6ccc(NC7CCC(=O)NC7=O)cc6Cl)CC5)CC4)cc3)nc2n1-c1cccc(C(C)(C)O)n1` (centres unmarked) [Compound 88], the 50% degradation concentration (DC50) is less than 0.1 µM and the Dmax is more than 75%.

Consider `C=CCn1c(=O)c2cnc(Nc3ccc(N4CCC(CN5CCN(c6cccc7c6n(C)c(=O)n7C6CCC(=O)NC6=O)CC5)CC4)cc3)nc2n1-c1cccc(C(C)(C)O)n1` (centres unmarked) [Compound 90], for which the 50% degradation concentration (DC50) is less than 0.1 µM and the Dmax was more than 75%.

As to `O=C1CCC(Nc2ccc(N3CCN(CC4CCN(c5ccc(Nc6ncc7c(=O)n(-c8c(Cl)cccc8Cl)c8nccn8c7n6)cc5)CC4)CC3)c(F)c2)C(=O)N1` (centres unmarked) [Compound 94], the half-maximal degradation concentration (DC50) is less than 0.1 µM and the Dmax was more than 75%.

Regarding `C=CCn1c(=O)c2cnc(Nc3ccc(N4CCC(N(C)C5CCN(c6cccc7c6n(C)c(=O)n7C6CCC(=O)NC6=O)CC5)CC4)cc3)nc2n1-c1cccc(C(C)(C)O)n1` (centres unmarked) [Compound 98], the 50% degradation concentration (DC50) was less than 0.1 µM and the Dmax is 50 to 75%.

As to `C=CCn1c(=O)c2cnc(Nc3ccc(C4CCN(C5CCN(c6cccc7c6n(C)c(=O)n7C6CCC(=O)NC6=O)CC5)CC4)cc3)nc2n1-c1cccc(C(C)(C)O)n1` (centres unmarked) [Compound 99], the DC50 is less than 0.1 µM and the Dmax was in the range of 50 to 75%.

As for `C=CCn1c(=O)c2cnc(Nc3ccc(N4CCN(CC5CCN(c6ccc(NC7CCC(=O)NC7=O)cc6F)CC5)CC4)cc3)nc2n1-c1cccc(C(C)(C)O)n1` (centres unmarked) [Compound 102-A], the DC50 is less than 0.1 µM and the Dmax was more than 75%.

`C=CCn1c(=O)c2cnc(Nc3ccc(C4CCN(CC5CCN(c6ccc(NC7CCC(=O)NC7=O)cc6C(F)(F)F)CC5)CC4)cc3)nc2n1-c1cccc(C(C)(C)O)n1` (centres unmarked) [Compound 107]: the half-maximal degradation concentration (DC50) was less than 0.1 µM and the maximal degradation (Dmax) is more than 75%.

For `C=CCn1c(=O)c2cnc(Nc3ccc(N4CCN(CC5CCN(c6ccc(NC7CCC(=O)NC7=O)cc6F)CC5)CC4)cc3)nc2n1-c1ccc2c(n1)[C@](C)(O)CC2` (some centres unmarked) [Compound 112], the DC50 is less than 0.1 µM and the greatest degradation seen (Dmax) was more than 75%.

In the case of `C=CCn1c(=O)c2cnc(Nc3ccc(N4CCN(CC5CCN(c6ccc(NC7CCC(=O)NC7=O)cc6F)CC5)CC4)cc3)nc2n1-c1ccc2c(n1)[C@@](C)(O)CC2` (some centres unmarked) [Compound 113], the DC50 is less than 0.1 µM and the Dmax was more than 75%.

Consider `C=CCn1c(=O)c2cnc(Nc3ccc(N4CCC(CN5CCN(c6cccc7c(N8CCC(=O)NC8=O)nn(C)c67)CC5)CC4)cc3)nc2n1-c1cccc(C(C)(C)O)n1` [Compound 118], for which the DC50 lay in the range of 0.1 to 1 µM and the Dmax was 50 to 75%.

Regarding `C=CCn1c(=O)c2cnc(Nc3ccc(N4CCN(CC5CN(c6ccc(NC7CCC(=O)NC7=O)cc6F)C5)CC4)cc3)nc2n1-c1cccc(C(C)(C)O)n1` (centres unmarked) [Compound 122], the DC50 was less than 0.1 µM and the maximal degradation (Dmax) is more than 75%.
